pIC50: −log10 of the molar value. Calls of active or inactive are those of the source. No cut-off for these calls is given here.
Target: T1, Tyrosinase (Agaricus bisporus) (UniProt O42713)
T1 sequence (whole entry): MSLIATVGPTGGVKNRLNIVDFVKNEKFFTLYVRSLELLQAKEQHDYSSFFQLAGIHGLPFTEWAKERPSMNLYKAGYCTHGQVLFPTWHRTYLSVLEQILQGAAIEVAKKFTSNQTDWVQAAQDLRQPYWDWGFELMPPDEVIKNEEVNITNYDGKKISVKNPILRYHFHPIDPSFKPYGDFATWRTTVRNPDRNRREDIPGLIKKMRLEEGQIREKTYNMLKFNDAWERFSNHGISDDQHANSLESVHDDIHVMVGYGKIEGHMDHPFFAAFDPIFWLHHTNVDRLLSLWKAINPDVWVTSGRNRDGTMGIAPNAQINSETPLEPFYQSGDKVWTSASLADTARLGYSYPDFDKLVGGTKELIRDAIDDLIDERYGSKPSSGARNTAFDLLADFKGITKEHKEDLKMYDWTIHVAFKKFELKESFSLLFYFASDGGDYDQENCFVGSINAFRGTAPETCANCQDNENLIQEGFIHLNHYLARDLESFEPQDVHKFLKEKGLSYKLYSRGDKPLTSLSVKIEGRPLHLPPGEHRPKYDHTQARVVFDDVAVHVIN
Test: Competitive inhibition of mushroom tyrosinase using L-DOPA as substrate preincubated at 0.1 to 0.3 uM for 10 mins by Lineweaver-Burk double reciprocal plot method

| Structure (SMILES) | inhibition |
| --- | --- |
| C/C(CCc1ccc(OCc2ccccc2)cc1)=N\NC(N)=S | Active |

Target: T1, Tyrosinase (Agaricus bisporus)
Test: Reversible inhibition of mushroom tyrosinase using L-DOPA as substrate preincubated at 0.1 to 0.3 uM for 10 mins by spectrophotometry

| Structure (SMILES) | inhibition |
| --- | --- |
| C/C(CCc1ccc(OCc2ccccc2)cc1)=N\NC(N)=S | Active |

Target: T1, Tyrosinase (Agaricus bisporus)
Test: Reversible inhibition of mushroom tyrosinase using L-DOPA as substrate preincubated at 0.2 to 0.6 uM for 10 mins by spectrophotometry

| Structure (SMILES) | inhibition |
| --- | --- |
| C/C(Cc1ccc(OCc2ccccc2)cc1)=N\NC(N)=S | Active |

Target: T1, Tyrosinase (Agaricus bisporus)
Test: Competitive inhibition of mushroom tyrosinase using L-DOPA as substrate preincubated at 0.2 to 0.6 uM for 10 mins by Lineweaver-Burk double reciprocal plot method

| Structure (SMILES) | inhibition |
| --- | --- |
| C/C(Cc1ccc(OCc2ccccc2)cc1)=N\NC(N)=S | Active |

Target: T2, Tyrosinase (Agaricus bisporus, UniProt O42713)
T2 sequence (O42713 whole entry): T1 sequence (whole entry)
Description: Inhibition of mushroom tyrosinase using L-DOPA as substrate preincubated for 10 mins by spectrophotometry

| Structure (SMILES) | pIC50 |
| --- | --- |
| C/C(Cc1ccc(O)cc1)=N\NC(N)=S | 5.57 |
| CCC(CC)Oc1ccc(CC/C(C)=N/NC(N)=S)cc1 | 6.35 |
| CCCCCCOc1ccc(CC/C(C)=N/NC(N)=S)cc1 | 6.12 |
| C/C(CCc1ccc(OCC(=O)O)cc1)=N\NC(N)=S | 6.23 |
| C/C(CCc1ccc(OCCCC(=O)O)cc1)=N\NC(N)=S | 6.17 |
| C/C(CCc1ccc(OCCC(C)C)cc1)=N\NC(N)=S | 6.32 |
| C/C(CCc1ccc(OCc2ccc(Br)cc2)cc1)=N\NC(N)=S | 6.36 |
| CC(=O)Oc1ccc(CC/C(C)=N/NC(N)=S)cc1 | 7.14 |
| COc1ccc(C/C(C)=N/NC(=S)NN)cc1 | 3.80 |
| CCOc1ccc(CC/C(C)=N/NC(N)=S)cc1 | 6.68 |
| CCCCOc1ccc(CC/C(C)=N/NC(=S)NN)cc1 | 3.64 |
| CCCOc1ccc(CC/C(C)=N/NC(N)=S)cc1 | 6.58 |
| COc1ccc(CC/C(C)=N/NC(N)=S)cc1 | 6.73 |
| CCOC(=O)COc1ccc(CC/C(C)=N/NC(N)=S)cc1 | 6.29 |
| CCCCCOc1ccc(C/C(C)=N/NC(N)=S)cc1 | 6.21 |
| CCCCOc1ccc(CC/C(C)=N/NC(N)=S)cc1 | 6.57 |
| NNC(=S)NN | 3.75 |
| COc1ccc(/C(C)=N/NC(=S)NN)cc1 | 3.96 |
| C/C(Cc1ccc(OCc2ccccc2)cc1)=N\NC(N)=S | 6.47 |
| C/C(CCc1ccc(OCc2ccccc2)cc1)=N\NC(N)=S | 6.66 |
| CCCCCCCCOc1ccc(CC/C(C)=N/NC(N)=S)cc1 | 6.06 |
| C/C(CCc1ccc(O)cc1)=N\NC(=S)NN | 3.90 |
| CCCCCOc1ccc(CC/C(C)=N/NC(N)=S)cc1 | 6.39 |
| CCOC(=O)CCCOc1ccc(C/C(C)=N/NC(N)=S)cc1 | 6.32 |
| COc1ccc(CC/C(C)=N/NC(=S)NN)cc1 | 3.68 |
| CCCCOc1ccc(C/C(C)=N/NC(=S)NN)cc1 | 3.65 |
| CCOC(=O)CCCOc1ccc(CC/C(C)=N/NC(N)=S)cc1 | 6.48 |
| C/C(CCc1ccc(OC(=O)c2ccccc2)cc1)=N\NC(N)=S | 6.81 |
| C/C(CCc1ccc(OCCCc2ccccc2)cc1)=N\NC(N)=S | 6.08 |
| C/C(CCc1ccc(OC(=O)C(C)C)cc1)=N\NC(N)=S | 6.54 |
